Where two headings read alike, the source gives them in different places.
Tests used:
[1] = treatment of second stage infection (CNS infection); estimated; cited from earlier work
[2] = system: Trypanosoma brucei brucei strain 427–221; test: Trypanosome screening assay (CellTiter-Glo ATP bioluminescence, 48 h); format: cell-based; settings: Trypanosoma brucei, read-out: T.b.b IC50
Protocol: Trypanosoma brucei brucei strain 427–221 were grown at 37°C, 5% CO2 in HMI-9 medium containing 10% Fetal Bovine Serum, 10% Serum Plus (JRH Inc., Lenexa, KS,USA) and penicillin/streptomycin.
T.b.b. 427–221 were diluted to 2.10^4 per ml in complete HMI-9 medium and aliquoted in Greiner sterile 384-well flat white opaque culture plates using a WellMate cell dispenser from Matrix Tech. (Hudson, NH, USA). Test compounds were serially diluted in dimethyl sulfoxide (DMSO) and added to the assay plates with the robotic dispenser Biomek FXp liquid handler (Beckman Coulter). Thimerosal (2 µM final concentration) was added as a positive control and DMSO as a negative control (1% final concentration). Trypanosomes were incubated with compounds for 48 hours at 37°C with 5% CO2 before monitoring cell viability as previously described. Briefly, trypanosomes were lysed in the wells by adding 25 µL of CellTiter-GloTM (Promega). The lysed trypanosomes were placed on an orbital shaker at room temperature for 2 minutes. After lysis, the resulting ATP-bioluminescence was measured at room temperature using an Analyst HT plate reader (Molecular Devices). Percentage inhibition of parasite growth was calculated for each well as [1−(RLUx−RLU+)/(RLU−−RLU+)]*100 where RLUx, RLU+ and RLU− are respectively the Relative Light Units for each well, positive (thimerosal) and negative (DMSO) controls. A screening window coefficient, denoted Z′ factor, was used to evaluate the performance of the assay. The Z′ factor, calculated as 1−(3σc++3σc−)/(μc+−μc−) where σc+, σc−, μc+ and μc− are respectively the standard deviation and mean values of positive and negative controls, is reflective of the assay signal dynamic range and the data variation associated with signal measurement. IC50's were calculated using Prism (GraphPad).

HeLa cells = test: HeLa toxicity screening assay (nuclei count by imaging, 17 h); format: cell-based, human; settings: for IC50: Homo sapiens, HeLa
Protocol: (§1) HeLa cells were plated at a density of 2,000 cells per well into two 384 well clear bottom plates (Costar 3712) in DMEM with 10% FBS. After 24 hours incubation at 37°C with 5% CO2 the cells were pinned with 200 nL of a two-fold serial dilution of merulin analogues. After 17 hours of treatment at 37°C in 5% CO2 the plates were fixed with 4% formaldehyde and washed with PBS (BioTek ELx405). After 10 minutes in PBS with 0.5% TritonX-100 each plate was washed and blocked with 2% Bovine Serum Albumin in PBS. Nuclei were stained with Hoechst 33342 then washed and placed in 40 µL of PBS with 0.1% sodium azide. Plates were imaged using the ImageXpress Micro epifluorescent scope (Molecular Devices). MetaXpress software was used to quantify total number of cells and IC50s were calculated using Prism (GraphPad).

T.b.b 427–221 = test: Live trypanosome fluorescence imaging; format: cell-based, Trypanosoma brucei brucei; settings: 20 µM, 2 hours, washed, 1 hour compound-free medium
Protocol: To explore the intracellular of distribution the coumarin-labeled derivative 30, parasites were incubated with 20 µM of 30 for 2 hours, washed once, and incubated in compound-free medium for 1 hour prior to microscopy. […] Although visualization of labeled merulin A in live cell imaging is an encouraging observation, further experiments are required to determine the precise localization and potential function of these compounds against T. brucei.
T.b.b 427–221 diluted to […] in complete HMI-9 medium were incubated with either 20 µM of compound 30, 20 µM of the free coumarin dye or 30 µM of compound 17 at 37°C for 2 hours. The parasites were then washed once with complete HMI-9 medium and incubated in compound-free complete HMI-9 medium for 1 additional hour. Parasites were directly mounted under coverslips and viewed with 100×-oil immersion on a Zeiss Laser Confocal microscope LSM 510 Meta.

T98-G cells = test: Glioblastoma toxicity screening assay (nuclei count by imaging, 17 h); format: cell-based; settings: Homo sapiens, T98G; Figure 4
Protocol: as §1, with “T98-G cells (ATTC” for “HeLa cells were”, “T98-G cells (ATTC number: CRL-1690) were plated” for “HeLa cells were plated”

For Nc1nc(N)nc(Nc2ccc([As]3SCC(CO)S3)cc2)n1 (stereo not drawn) [Melarsoprol, reference compound], the “mortality rate due to drug-associated toxicity” value [1] is listed as “three to ten” and the IC50 [2] is listed as 0.002 µM.
With CC1(C)CCC(=O)[C@@]2(C)OO[C@@H]3C[C@@]12CC[C@H]3O [compound 1, merulin A] the IC50 (HeLa cells; Figure 4) was over 50 µM, the “fluorescence detected in live parasites” value (T.b.b 427–221) was “No fluorescence was detected” and the IC50 (T98-G cells) was over 50 µM. It also gave an IC50 ([2]; Table 3) of 4 µM.
Work on CC1(C)CCC(=O)[C@@]2(C)OO[C@H]3C[C@@]12CC[C@H]3OC(=O)c1ccc(N2CCCCC2)nc1 [compound 26, (3S,4R,6aS,10aS)-7,7,10a-trimethyl-10-oxooctahydro-3H-3,6a-methanobenzo[c][1,2]dioxocin-4-yl 6-(piperidin-1-yl)nicotinate] yielded an IC50 (HeLa cells; Figure 4) of 24 µM, an IC50 (T98-G cells) of 15 µM and an IC50 ([2]; Figure 4, bloodstream form) of 0.21 µM.
Work on CC(C)(C)OC(=O)N1CCC(CC(=O)O[C@@H]2CC[C@@]34C[C@@H]2OO[C@]3(C)C(=O)CCC4(C)C)CC1 [compound 27, tert-butyl-4-(2-oxo-2-(((3S,4R,6aS,10aS)-7,7,10a-trimethyl-10-oxooctahydro-3H-3,6a-methanobenzo[c][1,2]dioxocin-4-yl)oxy)ethyl)piperidine-1-carboxylate] yielded an IC50 (HeLa cells; Figure 4) of 33 µM, an IC50 (T98-G cells) of over 50 µM and an IC50 ([2]; Figure 4, bloodstream form) of 0.16 µM.
CC1(C)CCC(=O)[C@@]2(C)OO[C@H]3C[C@@]12CC[C@H]3OC(=O)CC1CCNCC1 [compound 28, (3S,4R,6aS,10aS)-7,7,10a-trimethyl-10-oxooctahydro-3H-3,6a-methanobenzo[c][1,2]dioxocin-4-yl 2-(piperidin-4-yl)acetate] gave an IC50 (HeLa cells; Figure 4) of 21 µM, an IC50 (T98-G cells) of over 50 µM and an IC50 ([2]; Figure 4, bloodstream form) of 0.16 µM.
CC1(C)CCC(=O)[C@@]2(C)OO[C@H]3C[C@@]12CC[C@H]3OC(=O)CN [compound 29, (3S,4R,6aS,10aS)-7,7,10a-trimethyl-10-oxooctahydro-3H-3,6a-methanobenzo[c][1,2]dioxocin-4-yl 2-aminoacetate] gave an IC50 (HeLa cells; Figure 4) of over 50 µM, an IC50 (T98-G cells) of over 50 µM and an IC50 ([2]; Figure 4, bloodstream form) of over 20 µM.
For CN(C)c1ccc2c(CC(=O)O[C@@H]3CC[C@@]45C[C@@H]3OO[C@]4(C)C(=O)CCC5(C)C)cc(=O)oc2c1 [compound 30, (3S,4R,6aS,10aS)-7,7,10a-trimethyl-10-oxooctahydro-3H-3,6a-methanobenzo[c][1,2]dioxocin-4-yl 2-(7-(dimethylamino)-2-oxo-2H-chromen-4-yl)acetate], the SI (HeLa cells; HeLa vs T. brucei) was over 125, the IC50 (HeLa cells) was over 50 µM and the “fluorescence detected in live parasites” value (T.b.b 427–221) was “Diffuse cytoplasmic fluorescent signal”. For the same molecule, the IC50 (T98-G cells) was over 50 µM and the IC50 ([2]; Table 3) was 0.42 µM.
For CN(C)c1ccc2c(CC(=O)NCCNC(=O)CCc3ccccc3)cc(=O)oc2c1 [compound 31, N-(2-(2-(7-(dimethylamino)-2-oxo-2H-chromen-4-yl)acetamido)ethyl)-3-phenylpropanamide], the “fluorescence detected in live parasites” value (T.b.b 427–221) was “No fluorescence was detected”.

Reference: paper PMC3459870, “Hit-to-Lead Development of the Chamigrane Endoperoxide Merulin A for the Treatment of African Sleeping Sickness” (PLoS ONE, 2012)
